# System: Monocyte-derived DCs
# Experiment: DC-EC co-culture and DC activation
# Type: cell-based, human
# Experimental: Monocyte-derived DCs (DCs) were generated from primary human monocytes obtained from PBMCs (purity>98%) as described (Sallusto and Lanzavecchia 1994, Magérus-Chatinet, Yu et al. 2007). In brief, human peripheral blood mononuclear cells (PBMC) were separated from healthy donors blood (EFS, Paris, France), and monocytes were purified from PBMC by negative selection according to manufacturer instructions (StemCell Technologies, France). DCs were obtained by incubating monocytes for 7 days in complete medium containing GM-CSF (100 ng/ml) and IL-4 ([…]).
# Three DC culture systems were developed. Monocytes derived DCs (5×10^5 cells) were incubate for 24 h in medium alone and considered as non-mucosal DCs (DCs) or co-cultured with nasal epithelial cell (RPMI-2650 cell line) monolayer in 24-well plate (DC-EC or eduDC systems for 24 hours at 37° C. In turn, DCs were either further cultured with ECs during P1 stimulation (DC-ECs) or separated from EC and transferred into a new plate (eduDCs) for further P1 treatment. Subsequently, P1 (clade B, 125 μM) or medium were added to each of the DCs, DC-ECs or eduDCs cultures for 16 hrs. DCs were collected for surface staining with allophycocyanin (APC)-conjugated anti-CD86, R-phycoerythrin (PE)-conjugated anti-CD83, APC-conjugated anti-TSLPR, PE-conjugated anti-IL-7Rα antibodies (all from Bio-Techne). Specific labeling was quantified by flow cytometry using a Guava EasyCyte flow cytometer and the InCyte software (Merck) described (Duchemin, Khamassi et al. 2018). Culture supernatant were collected and frozen at −80° C. for subsequent cytokine and chemokine analyses.
# In particular, mucosal DCs modulate their functions by interacting with epithelial cells (ECs) including via epithelial secretion of TSLP (Rimoldi, Chieppa et al. 2005, Biton, Levin et al. 2011). Thus, we established a simplified mucosal DC model, by co-culturing DCs and nasal ECs (RPMI-2650 cell line), thereby mimicking the nasal mucosal environment. DCs were first ‘educated’ by a 24 hr co-culture with ECs. Subsequently, these ‘educated’ DCs were either maintained in culture with ECs and referred to as DC-EC, or separated from the epithelium and referred to as eduDC. Alternatively, DCs only cultured with medium represented ‘non-mucosal’ DCs.
sequence,measurement,setting,value
SQNQQEKNEQELLELDKWASLWNWFNITNWLWYIK [P1],expression of maturation markers CD83 and CD86,"'non-mucosal' DCs, P1 125 μM overnight",has no effect
same,IFN-γ secretion,DC models upon P1 stimulation,remains unchanged upon P1-stimulation or slightly decreases in DC-EC
same,expression of TSLP receptor (TSLP-R and IL-7Rα),DCs in all three models,significantly enhanced the expression of TSLP receptor
same,"IL-12, IL-13, CCL2, CCL17, TNF-α, APRIL and BAFF secretion","DCs, DC-EC, eduDC",secreted equally in all three models
same,TSLP secretion,eduDC and DC-EC models,more modest
same,"IL-6, IL-8, IL-10, CCL20, CCL22 and MMP-9 secretion",eduDC and DC-EC models compared with non-mucosal DCs,significant increase
same,expression of co-stimulatory molecules CD83 and CD86,"mucosal DCs (DC-EC or eduDCs), P1 125 μM overnight, versus untreated",significant up-regulation
same,"IL-25, IL-33, IL-4, IL-5 secretion",whatever the model,remain undetectable
